Measured values reported in patent US11046647B2, “Activators of the unfolded protein response” (The Board of Trustees of the University of Illinois, priority 2018, dated 2021).

Columns and labels:
[1] = system: ERα positive and ERα negative cells; type: cell-based
Procedure: ALAMAR BLUE RAPTINAL ASSAYS: Cells were plated at 4,000-10,000 cells/well (96 well plate), usually in 50 μl of medium. After about 18 hours, an additional 50 μl of medium containing 2× the desired final concentration of the test compound (C-105) was added to each well. After 24 hours Alamar Blue reagent was added and fluorescence in the wells was read (BMG PheraStar or Molecular Devices Spectra Max M3 Microplate Reader). % relative death was determined by setting the reading for raptinal-treated cells to 100% dead cells and the reading for vehicle-treated cells to 0% dead cells.
ERα positive MCF-7 breast cancer, Caov-3 ovarian cancer and ECC-1 uterine cancer cells and ERα negative MDA-MB-231 human breast cancer cells and HeLa, human cervical carcinoma cells and MCF-10A human mammary epithelial cells were plated at 10,000 cells/well (96 well plate) in 50 μl of medium. After about 18 hours, an additional 50 μl of medium containing 2× the desired final concentration of the test compound (C-105) was added to each well (final vol. 100 μl/well). After 24 hours Alamar Blue reagent was added and fluorescence in the wells was read after 1 hour (BMG PheraStar Microplate Reader). % relative death was determined by setting the reading for 10,000 nM raptinal-treated cells to 100% dead cells and the reading for vehicle-treated cells to 0% dead cells. (Data is the average ±SEM of 3 independent experiments with 5 biological replicates for each sample within each independent experiment.)
FIG. 3 compares the ability of (±)-105 to kill ERα positive and ERα negative cells. The dose response tests the ability of (±)-105 to rapidly kill ERα positive and ERα negative cells. […] After 24 hours Alamar Blue reagent was added and fluorescence in the wells was read. % relative death was determined by setting the reading for […] raptinal-treated cells to 100% dead cells and the reading for vehicle-treated cells to 0% dead cells. […]

[2] = system: T47D, TYS and TDG cells; assay: MTS proliferation assay (4 days), T47D, TYS and TDG; type: cell-based, human
Procedure: FIG. 30 compares the ability of BHPI and test compounds to inhibit proliferation of T47D, TYS and TDG cells. T47D cells were in medium containing 10 FBS (which contains estrogen), TYS-4 and TDG-1 cells were in medium containing 10% cd-FBS (estrogen depleted). Cells are plated at 2,000 cells/well in 96 well plates. After 24 hours in medium containing FBS or charcoal-dextran treated FBS (depleted of endogenous estrogens), the indicated concentration of each compound (in DMSO at 1/1000th of the volume of medium) was added. After 2 days the medium was changed, and the compounds were added again. After 2 additional days (4 days total) MTS assays are used to evaluate cell proliferation. (n=6 ±S.E.M.).

[3] = system: parental T47D cells; assay: MTS growth assay, parental T47D cells; type: cell-based, human; settings: 100 nM and 1 μM; 4 days
Procedure: (§1) ERα containing T47D human breast cancer cells able to survive in 1 μM BHPI were selected by clonal outgrowth. The effect of 100 nM and 1 μM BHPI and (−)-105 on growth of the (BHPI-sensitive) parental T47D cells and partially BHPI-resistant T47D clones 1,3,8, and 11 was evaluated. 4,000 cells/well were plated. Cell number was determined by MTS assay from a standard curve of absorbance versus cell number. […] Thus, in 4 days (−)-105 killed some, but not all, of the resistant cells.

[4] = system: partially BHPI-resistant T47D clones 1,3,8, and 11; assay: MTS growth assay, partially BHPI-resistant T47D clones; type: cell-based, human; settings: 100 nM and 1 μM; 4 days
Procedure: as §1

[5] = system: T47D cells; assay: 24-hour crystal violet assay; type: cell-based, human
Procedure: FIG. 36. Discovery of SERK-F6 (also known as, C(−)-105, (−)-105, (R)-105, (−)-1, or (R)-1), a compound that kills ERα-positive cancer cells, a, Chemical structures of BHPI and racemic compound 1 (i.e. (±)-1), and their cytotoxic activity on T47D breast cancer cells after 24-hour incubations with concentrations as indicated in nM. Cells were stained with annexin V-FITC and PI dyes prior to analysis via flow cytometry. […] Cells were incubated with SERK-F6 or positive control, Raptinal, for 24 hours and then stained with annexin V-FITC and PI dyes and analyzed via flow cytometry. Error bars represent S.E.M of 3 independent replicates. c, IC50 values of SERK-F6 after 24-hour incubation against a panel of cancer cell lines grouped by their reported ERα status. Cell viability was measured by Alamar blue fluorescence and set relative to a vehicle control and a quantitative dead control treated with Raptinal. Error bars represent S.E.M of 3 independent experiments. d, Crystal violet staining of T47D cells after 24-hour incubations with compounds and concentrations as indicated. Image is representative of 2 independent experiments. e,f, Long-term cell culture experiment with T47D, TDG, and TYS cells. Cells were incubated for 2 weeks with compounds (1 μM), followed by compound washout, and cells were cultured for 2 months. Cell number was determined by MTS.

[6] = system: MDG-luc. cells; assay: Metastatic model, MDG-luc cells injected into the tail-vein; type: in vivo, mouse; settings: daily dosing
Excerpt: FIG. 41. SERK-F6 eradicates mutant ERα primary and metastatic breast cancer. a-c, TYS-luc. orthotopic tumors were established in NSG ovariectomized mice (no E2 pellet, 60 days to establish) and dosed daily as indicated (n=5-6). b, representative examples of bioluminescence images of SERK-F6 treated mice (7 days). d,e, TDG-luc. orthotopic tumors were established in NSG ovariectomized mice (no E2 pellet, 120 days to establish) and dosed daily as indicated (n=4-5). e, Bioluminescence image of SERK-F6 treated mouse with TDG-luc. tumor burden after 7 days. f, MYS-luc. orthotopic tumors were established in NSG ovariectomized mice (no E2 pellet, 45 days to establish) and dosed daily as indicated (n=4-5). g, MDG-luc. orthotopic tumors were established in NSG ovariectomized mice (no E2 pellet, 45 days to establish) and dosed daily as indicated (n=4-5). h, Metastatic model with MDG-luc. cells injected into the tail-vein of NSG ovariectomized mice (no E2 pellet, 1.5 months to establish) and mice were dosed daily as indicated (n=4-5).

## O=C1Nc2c(C(F)(F)F)cccc2C1(c1ccc(O)cc1)c1ccc(OC(F)(F)F)cc1 (racemic) [(±)-105, 3-(4-hydroxyphenyl)-3-(4-(trifluoromethoxy)phenyl)-7-(trifluoromethyl)indolin-2-one]
[1]; 0-10,000 nM, 24 hours
  selectivity for ERα positive cancer cell lines: selective for ERα positive cancer cell lines
[1]; concentrations more than 10 times higher than those that kill ERα positive cells
  effect in ERα negative cell lines: no effect
[2]
  effectiveness in killing compared with BHPI: more effective than BHPI

## O=C1Nc2c(C(F)(F)F)cccc2C1(c1ccc(O)cc1)c1ccc(OC(F)(F)F)cc1 (single isomer, unassigned; (-)) [(−)-105, 3-(4-hydroxyphenyl)-3-(4-(trifluoromethoxy)phenyl)-7-(trifluoromethyl)indolin-2-one]
[3]
  effect on growth / cell number: killed all the T47D cells
[4]
  effect on growth / cell number: completely blocked the growth of the resistant clones
[5]
  cell killing: quantitatively kills
[6]
  metastatic tumor burden: eradicates metastatic tumor burden
